From the supplement of paper PMC10307832

Columns and labels:
Assay in all cases: relative viability (nuclei count vs DMSO), 5 days (fraction); higher = more cells survive
201T = tested on: 201T
Outline: (§1)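 Relative viability divides the nuclei count in treated wells by that in vehicle wells. Lung cancer cell lines were seeded in 1536-well plates, dosed by pin tool the next day, and fixed and stained after 5 days in one step with final 0.05% Triton X-100, 1% formaldehyde and 1 ug/ml Hoechst. Dosing was a single drug or a fixed anchor-drug dose plus five library-drug doses (not always all listed) in √10 steps, and values are medians of duplicate plates imaged at 4×.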

ABC-1 = tested on: ABC-1
Outline: as §1

BEN = tested on: BEN
Outline: as §1

CAL-12T = tested on: CAL-12T
Outline: as §1

COR-L 105 = tested on: COR-L 105
Outline: as §1

EKVX = tested on: EKVX
Outline: as §1

EMC-BAC-2 = tested on: EMC-BAC-2
Outline: as §1

HCC-15 = tested on: HCC-15
Outline: as §1

HCC-44 = tested on: HCC-44
Outline: as §1

LK-2 = tested on: LK-2
Outline: as §1

LU99A = tested on: LU99A
Outline: as §1

NCI-H1563 = tested on: NCI-H1563
Outline: as §1

NCI-H1651 = tested on: NCI-H1651
Outline: as §1

NCI-H2023 = tested on: NCI-H2023
Outline: as §1

NCI-H322M = tested on: NCI-H322M
Outline: as §1

NCI-H358 = tested on: NCI-H358
Outline: as §1

NCI-H460 = tested on: NCI-H460
Outline: as §1

NCI-H520 = tested on: NCI-H520
Outline: as §1

NCI-H522 = tested on: NCI-H522
Outline: as §1

NCI-H727 = tested on: NCI-H727
Outline: as §1

NCI-H838 = tested on: NCI-H838
Outline: as §1

PC-3 [JPC-3] = tested on: PC-3 [JPC-3]
Outline: as §1

SW 900 = tested on: SW 900
Outline: as §1

Cc1cn(-c2cc(NC(=O)c3ccc(C)c(Nc4nccc(-c5cccnc5)n4)c3)cc(C(F)(F)F)c2)cn1 [Nilotinib] + COc1cccc2cc(-c3nc([C@H]4CC[C@H](C(=O)O)CC4)n4ncnc(N)c34)[nH]c12 [OSI-027] (partner 0.5 µM)
relative viability (201T; first compound 0.001 µM): 0.734 | relative viability (201T; first compound 0.003162 µM): 0.666 | relative viability (201T; first compound 0.01 µM): 0.77 | relative viability (201T; first compound 0.03162 µM): 0.317 | relative viability (201T; first compound 0.1 µM): 0.667 | relative viability (ABC-1; first compound 0.001 µM): 0.447 | relative viability (ABC-1; first compound 0.003162 µM): 0.479 | relative viability (ABC-1; first compound 0.01 µM): 0.45 | relative viability (ABC-1; first compound 0.03162 µM): 0.376 | relative viability (ABC-1; first compound 0.1 µM): 0.237 | relative viability (BEN; first compound 0.001 µM): 0.295 | relative viability (BEN; first compound 0.003162 µM): 0.285 | relative viability (BEN; first compound 0.01 µM): 0.348 | relative viability (BEN; first compound 0.03162 µM): 0.283 | relative viability (BEN; first compound 0.1 µM): 0.277 | relative viability (CAL-12T; first compound 0.001 µM): 0.612 | relative viability (CAL-12T; first compound 0.003162 µM): 0.413 | relative viability (CAL-12T; first compound 0.01 µM): 0.426 | relative viability (CAL-12T; first compound 0.03162 µM): 0.427 | relative viability (CAL-12T; first compound 0.1 µM): 0.527 | relative viability (COR-L 105; first compound 0.001 µM): 0.831 | relative viability (COR-L 105; first compound 0.003162 µM): 0.683 | relative viability (COR-L 105; first compound 0.01 µM): 0.741 | relative viability (COR-L 105; first compound 0.03162 µM): 0.577 | relative viability (COR-L 105; first compound 0.1 µM): 0.586 | relative viability (EKVX; first compound 0.001 µM): 0.541 | relative viability (EKVX; first compound 0.003162 µM): 0.719 | relative viability (EKVX; first compound 0.01 µM): 0.904 | relative viability (EKVX; first compound 0.03162 µM): 0.665 | relative viability (EKVX; first compound 0.1 µM): 0.671 | relative viability (EMC-BAC-2; first compound 0.001 µM): 0.348 | relative viability (EMC-BAC-2; first compound 0.003162 µM): 0.387 | relative viability (EMC-BAC-2; first compound 0.01 µM): 0.426 | relative viability (EMC-BAC-2; first compound 0.03162 µM): 0.345 | relative viability (EMC-BAC-2; first compound 0.1 µM): 0.354 | relative viability (HCC-15; first compound 0.001 µM): 0.562 | relative viability (HCC-15; first compound 0.003162 µM): 0.778 | relative viability (HCC-15; first compound 0.01 µM): 0.775 | relative viability (HCC-15; first compound 0.03162 µM): 0.435 | relative viability (HCC-15; first compound 0.1 µM): 0.306 | relative viability (HCC-44; first compound 0.001 µM): 0.498 | relative viability (HCC-44; first compound 0.003162 µM): 0.391 | relative viability (HCC-44; first compound 0.01 µM): 0.43 | relative viability (HCC-44; first compound 0.03162 µM): 0.505 | relative viability (HCC-44; first compound 0.1 µM): 0.382 | relative viability (LK-2; first compound 0.001 µM): 0.209 | relative viability (LK-2; first compound 0.003162 µM): 0.174 | relative viability (LK-2; first compound 0.01 µM): 0.184 | relative viability (LK-2; first compound 0.03162 µM): 0.178 | relative viability (LK-2; first compound 0.1 µM): 0.187 | relative viability (LU99A; first compound 0.001 µM): 0.272 | relative viability (LU99A; first compound 0.003162 µM): 0.304 | relative viability (LU99A; first compound 0.01 µM): 0.256 | relative viability (LU99A; first compound 0.03162 µM): 0.313 | relative viability (LU99A; first compound 0.1 µM): 0.273 | relative viability (NCI-H1563; first compound 0.001 µM): 0.72 | relative viability (NCI-H1563; first compound 0.003162 µM): 0.731 | relative viability (NCI-H1563; first compound 0.01 µM): 0.681 | relative viability (NCI-H1563; first compound 0.03162 µM): 0.74 | relative viability (NCI-H1563; first compound 0.1 µM): 0.666 | relative viability (NCI-H1651; first compound 0.001 µM): 0.638 | relative viability (NCI-H1651; first compound 0.003162 µM): 0.727 | relative viability (NCI-H1651; first compound 0.01 µM): 0.842 | relative viability (NCI-H1651; first compound 0.03162 µM): 0.508 | relative viability (NCI-H1651; first compound 0.1 µM): 0.403 | relative viability (NCI-H2023; first compound 0.001 µM): 0.303 | relative viability (NCI-H2023; first compound 0.003162 µM): 0.3 | relative viability (NCI-H2023; first compound 0.01 µM): 0.313 | relative viability (NCI-H2023; first compound 0.03162 µM): 0.277 | relative viability (NCI-H2023; first compound 0.1 µM): 0.195 | relative viability (NCI-H322M; first compound 0.001 µM): 0.516 | relative viability (NCI-H322M; first compound 0.003162 µM): 0.436 | relative viability (NCI-H322M; first compound 0.01 µM): 0.422 | relative viability (NCI-H322M; first compound 0.03162 µM): 0.384 | relative viability (NCI-H322M; first compound 0.1 µM): 0.481 | relative viability (NCI-H358; first compound 0.001 µM): 0.708 | relative viability (NCI-H358; first compound 0.003162 µM): 1.09 | relative viability (NCI-H358; first compound 0.01 µM): 0.655 | relative viability (NCI-H358; first compound 0.03162 µM): 0.666 | relative viability (NCI-H358; first compound 0.1 µM): 0.252 | relative viability (NCI-H460; first compound 0.001 µM): 0.367 | relative viability (NCI-H460; first compound 0.003162 µM): 0.2 | relative viability (NCI-H460; first compound 0.01 µM): 0.327 | relative viability (NCI-H460; first compound 0.03162 µM): 0.255 | relative viability (NCI-H460; first compound 0.1 µM): 0.0921 | relative viability (NCI-H520; first compound 0.001 µM): 0.269 | relative viability (NCI-H520; first compound 0.003162 µM): 0.279 | relative viability (NCI-H520; first compound 0.01 µM): 0.325 | relative viability (NCI-H520; first compound 0.03162 µM): 0.281 | relative viability (NCI-H520; first compound 0.1 µM): 0.276 | relative viability (NCI-H522; first compound 0.001 µM): 0.67 | relative viability (NCI-H522; first compound 0.003162 µM): 0.648 | relative viability (NCI-H522; first compound 0.01 µM): 0.754 | relative viability (NCI-H522; first compound 0.03162 µM): 0.665 | relative viability (NCI-H522; first compound 0.1 µM): 0.61 | relative viability (NCI-H727; first compound 0.001 µM): 0.57 | relative viability (NCI-H727; first compound 0.003162 µM): 0.477 | relative viability (NCI-H727; first compound 0.01 µM): 0.697 | relative viability (NCI-H727; first compound 0.03162 µM): 0.44 | relative viability (NCI-H727; first compound 0.1 µM): 0.344 | relative viability (NCI-H838; first compound 0.001 µM): 0.427 | relative viability (NCI-H838; first compound 0.003162 µM): 0.381 | relative viability (NCI-H838; first compound 0.01 µM): 0.377 | relative viability (NCI-H838; first compound 0.03162 µM): 0.35 | relative viability (NCI-H838; first compound 0.1 µM): 0.429 | relative viability (PC-3 [JPC-3]; first compound 0.001 µM): 0.702 | relative viability (PC-3 [JPC-3]; first compound 0.003162 µM): 0.838 | relative viability (PC-3 [JPC-3]; first compound 0.01 µM): 0.785 | relative viability (PC-3 [JPC-3]; first compound 0.03162 µM): 0.703 | relative viability (PC-3 [JPC-3]; first compound 0.1 µM): 0.475 | relative viability (SW 900; first compound 0.001 µM): 0.46 | relative viability (SW 900; first compound 0.003162 µM): 0.492 | relative viability (SW 900; first compound 0.01 µM): 0.595 | relative viability (SW 900; first compound 0.03162 µM): 0.354 | relative viability (SW 900; first compound 0.1 µM): 0.465
